Key:
[1] = molecular target: T1, MC1-R (B-16 mouse melanoma cells) (Mus musculus, UniProt Q01727); assay: Competitive inhibition binding assay, 125I-NDP-α-MSH, MC1-R; settings: for Inhibition at 1 μM MC1-R: 1 μM compound, inhibition of 125I-NDP-α-MSH binding, mean of triplicates, results less than 0% reported as 0%
T1 construct: B-16 mouse melanoma cells (containing MC1-R); endogenous in cells; host or cells: B-16 mouse melanoma cells
Protocol: (§1) The competitive inhibition binding assay was conducted using membranes prepared from hMC3-R, hMC4-R, hMC5-R, and B-16 mouse melanoma cells (containing MC1-R) using 0.4 nM ^125I-NDP-α-MSH (New England Nuclear, Boston, Mass., USA) in 50 mM HEPES buffer containing 1 mM MgCl2, 2 mM CaCl2, and 5 mM KCl, at pH 7.2. The assay tube also contained a chosen concentration of the test peptidomimetic of this invention, generally 1 μM, for determining its efficacy in inhibiting the binding of ^125I-NDP-α-MSH to its receptor.
(§2) Incubation was for 90 minutes at room temperature, after which the assay mixture was filtered and the membranes washed three times with ice cold buffer. The filter was dried and counted in a gamma counter for remaining radioactivity bound to the membranes. 100% specific binding was defined as the difference in radioactivity (cpm) bound to cell membranes in the absence and presence of 1 μM α-MSH. […] Each assay was conducted in triplicate and the actual mean values are described.

MC3-R = MC3-R (Homo sapiens, UniProt P41968); assay: Competitive inhibition binding assay, 125I-NDP-α-MSH, MC3-R; design: expressed in transfected cells; settings: for Inhibition at 1 μM MC3-R: 1 μM compound, inhibition of 125I-NDP-α-MSH binding, mean of triplicates, results less than 0% reported as 0%
Sequence of MC3-R (P41968 whole entry): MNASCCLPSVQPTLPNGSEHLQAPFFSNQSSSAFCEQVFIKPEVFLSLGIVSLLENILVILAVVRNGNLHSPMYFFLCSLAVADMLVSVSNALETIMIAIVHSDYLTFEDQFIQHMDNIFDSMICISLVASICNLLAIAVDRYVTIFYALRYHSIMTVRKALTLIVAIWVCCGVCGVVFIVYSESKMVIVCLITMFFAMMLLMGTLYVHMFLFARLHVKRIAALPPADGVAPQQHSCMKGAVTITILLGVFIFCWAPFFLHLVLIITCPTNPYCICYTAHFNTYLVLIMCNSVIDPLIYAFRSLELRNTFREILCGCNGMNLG
Protocol: as §1, §2

MC4-R = MC4-R (Homo sapiens, UniProt P32245); assay: Competitive inhibition binding assay, 125I-NDP-α-MSH, MC4-R; design: expressed in transfected cells; settings: for Inhibition at 1 μM MC4-R: 1 μM compound, inhibition of 125I-NDP-α-MSH binding, mean of triplicates, results less than 0% reported as 0%
Sequence of MC4-R (P32245 whole entry): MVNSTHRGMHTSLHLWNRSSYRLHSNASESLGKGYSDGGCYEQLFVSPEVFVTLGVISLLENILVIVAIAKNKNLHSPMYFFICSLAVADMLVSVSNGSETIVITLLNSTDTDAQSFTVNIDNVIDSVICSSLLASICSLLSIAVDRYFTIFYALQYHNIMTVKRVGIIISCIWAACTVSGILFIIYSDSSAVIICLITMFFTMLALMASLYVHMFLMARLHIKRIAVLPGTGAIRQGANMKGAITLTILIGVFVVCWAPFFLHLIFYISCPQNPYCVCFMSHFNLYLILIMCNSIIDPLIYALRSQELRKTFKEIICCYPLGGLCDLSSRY
Protocol: as §1, §2

MC5-R = MC5-R (Homo sapiens, UniProt P33032); assay: Competitive inhibition binding assay, 125I-NDP-α-MSH, MC5-R; design: expressed in transfected cells; settings: for Inhibition at 1 μM MC5-R: 1 μM compound, inhibition of 125I-NDP-α-MSH binding, mean of triplicates, results less than 0% reported as 0%
Sequence of MC5-R (P33032 whole entry): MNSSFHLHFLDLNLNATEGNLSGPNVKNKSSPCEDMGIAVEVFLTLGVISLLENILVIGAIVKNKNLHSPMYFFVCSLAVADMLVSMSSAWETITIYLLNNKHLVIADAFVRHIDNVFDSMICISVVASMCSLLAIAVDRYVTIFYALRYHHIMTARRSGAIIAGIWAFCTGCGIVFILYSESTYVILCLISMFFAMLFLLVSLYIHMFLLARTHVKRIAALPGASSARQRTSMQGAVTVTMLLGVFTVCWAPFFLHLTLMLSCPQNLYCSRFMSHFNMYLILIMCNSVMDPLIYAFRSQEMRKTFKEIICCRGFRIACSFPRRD
Protocol: as §1, §2

T1 sequence (Q01727 whole entry): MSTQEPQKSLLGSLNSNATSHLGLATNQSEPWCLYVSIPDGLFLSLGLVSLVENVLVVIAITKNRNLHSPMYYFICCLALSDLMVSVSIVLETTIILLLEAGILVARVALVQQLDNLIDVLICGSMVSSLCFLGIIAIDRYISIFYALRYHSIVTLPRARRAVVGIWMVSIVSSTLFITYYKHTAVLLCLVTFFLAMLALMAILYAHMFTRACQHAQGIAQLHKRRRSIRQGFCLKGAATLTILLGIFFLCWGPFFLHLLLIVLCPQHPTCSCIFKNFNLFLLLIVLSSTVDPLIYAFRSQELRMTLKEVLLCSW

SMILES	Inhibition at 1 μM MC1-R [1] [%]	Inhibition at 1 μM MC3-R (MC3-R) [%]	Inhibition at 1 μM MC4-R (MC4-R) [%]	Inhibition at 1 μM MC5-R (MC5-R) [%]	inhibition at 1 µM [1] [%]	inhibition at 1 µM (MC3-R) [%]	inhibition at 1 µM (MC4-R) [%]	inhibition at 1 µM (MC5-R) [%]
N=C(N)NCCCC[C@H]1C(=O)N(CCc2ccc3ccccc3c2)CCN1C(=O)[C@H](N)Cc1ccc(Cl)cc1Cl [Example 67]	66	68	96	42				
N[C@H](Cc1ccc(Cl)cc1Cl)C(=O)N1CCN(CCc2ccc3ccccc3c2)C(=O)[C@@H]1CCCNc1ncccn1 [Example 68]	3	9	12	19				
N[C@H](Cc1ccc(Cl)cc1Cl)C(=O)N1CCN(CCc2ccc3ccccc3c2)C(=O)[C@@H]1CCCNc1cc[nH]n1 [Example 69]	20	8	3	12				
N[C@H](Cc1ccc(Cl)cc1Cl)C(=O)N1CCN(CCc2ccc3ccccc3c2)C(=O)[C@@H]1CCCNc1nncs1 [Example 70]	28	31	70	32				
N=C(N)NCCCC[C@H]1C(=O)N(CCc2ccc3ccccc3c2)CCN1C(=O)[C@H](N)Cc1ccc2ccccc2c1 [Example 71]	60	73	97	57				
CNC(=N)NCCC[C@H]1C(=O)N(CCc2ccc3ccccc3c2)CCN1C(=O)[C@H](N)Cc1ccc(Cl)cc1Cl [Example 72]	19	43	93	27				
CCNC(=N)NCCC[C@H]1C(=O)N(CCc2ccc3ccccc3c2)CCN1C(=O)[C@H](N)Cc1ccc(Cl)cc1Cl [Example 73]	14	35	91	24				
CCCNC(=N)NCCCC1C(=O)N(CCc2ccc3ccccc3c2)CCN1C(=O)C(N)Cc1ccc(Cl)cc1Cl (stereo not shown) [Example 74]	13	34	88	26				
CC(C)NC(=N)NCCCC1C(=O)N(CCc2ccc3ccccc3c2)CCN1C(=O)C(N)Cc1ccc(Cl)cc1Cl (stereo not shown) [Example 75]	37	40	85	28				
N=C(N)NCCC[C@H]1C(=O)N(CCc2ccc3ccccc3c2)CCN1C(=O)COc1ccc(Cl)cc1Cl [Example 77]					15	0	24	20
CCCCCCC(=O)N[C@@H](COCc1ccccc1)C(=O)N[C@H](Cc1ccc(Cl)cc1)C(=O)N1CCN(CCc2c[nH]c3ccccc23)C(=O)[C@@H]1CCCCN [Example 78]	96	72	99	99				
NCCCC[C@H]1C(=O)N2C(CC[C@@H]2COc2ccc3ccccc3c2)N1C(=O)[C@@H](Cc1ccc(Cl)cc1)NC(=O)[C@@H](N)COCc1ccccc1 (stereo partly shown) [Example 79]	90	14	81	86				
NCCCC[C@H]1C(=O)N2C(CC[C@@H]2COc2ccc3ccccc3c2)N1C(=O)[C@@H](Cc1ccccc1Cl)NC(=O)[C@@H](N)COCc1ccccc1 (stereo partly shown) [Example 82]	28	0	60	38				
NCCCC[C@H]1C(=O)N2C(CC[C@@H]2COc2ccc3ccccc3c2)N1C(=O)[C@@H](Cc1ccccc1Cl)NC(=O)[C@@H]1Cc2ccccc2CN1 (stereo partly shown) [Example 83]	42	2	89	38				

Other lines, results leading:

Inhibition at 1 μM MC1-R [1] [%]	Inhibition at 1 μM MC3-R (MC3-R) [%]	Inhibition at 1 μM MC4-R (MC4-R) [%]	Inhibition at 1 μM MC5-R (MC5-R) [%]	inhibition at 1 µM [1] [%]	inhibition at 1 µM (MC3-R) [%]	inhibition at 1 µM (MC4-R) [%]	inhibition at 1 µM (MC5-R) [%]	SMILES
44	0	74	37					NCCCC[C@H]1C(=O)N2C(CC[C@@H]2COc2ccc3ccccc3c2)N1C(=O)[C@@H](Cc1ccccc1Cl)NC(=O)[C@@H]1C[C@@H](OCc2ccccc2)CN1 (stereo partly shown) [Example 84]
4	0	44	13					NCCCC[C@H]1C(=O)N2C(CC[C@@H]2COc2ccc3ccccc3c2)N1C(=O)[C@@H](Cc1ccccc1Cl)NC(=O)[C@@H]1CC[C@H](c2ccccc2)N1 (stereo partly shown) [Example 85]
71	30	82	47					CCCCCCC(=O)N[C@@H](COCc1ccccc1)C(=O)N[C@H](Cc1ccccc1Cl)C(=O)N1C2CC[C@H](COc3ccc4ccccc4c3)N2C(=O)[C@@H]1CCCCN (stereo partly shown) [Example 86]
66	8	57	46					NCCCC[C@H]1C(=O)N2C(CC[C@@H]2COc2ccc3ccccc3c2)N1C(=O)[C@@H](Cc1ccccc1Cl)NC(=O)[C@H]1NCCc2ccccc21 (stereo partly shown) [Example 87]
48	0	37	20					NCCCC[C@H]1C(=O)N2C(CC[C@@H]2COc2ccc3ccccc3c2)N1C(=O)[C@@H](Cc1ccccc1Cl)NC(=O)[C@@H]1NCCc2ccccc21 (stereo partly shown) [Example 88]
24	0	34	22					NCCCC[C@H]1C(=O)N2C(CC[C@@H]2COc2ccc3ccccc3c2)N1C(=O)[C@@H](Cc1ccccc1Cl)NC(=O)C1(N)CCc2ccccc2C1 (stereo partly shown) [Example 89]
10	0	12	46					NCCCC[C@H]1C(=O)N2C(CC[C@@H]2COc2ccc3ccccc3c2)N1C(=O)[C@@H](Cc1ccccc1Cl)NC(=O)[C@@H](N)C1Cc2ccccc2C1 (stereo partly shown) [Example 90]
21	0	0	17					NCCCC[C@H]1C(=O)N2C(CC[C@@H]2COc2ccc3ccccc3c2)N1C(=O)[C@@H](Cc1ccccc1Cl)NC(=O)[C@@H]1C[C@H](Oc2ccc3ccccc3c2)CN1 (stereo partly shown) [Example 91]
7	0	22	21					NCCCC[C@H]1C(=O)N2C(CC[C@@H]2COc2ccc3ccccc3c2)N1C(=O)[C@@H](Cc1ccccc1Cl)NC(=O)[C@@H]1C[C@H](Oc2ccccc2)CN1 (stereo partly shown) [Example 92]
47	12	79	18					NCCCC[C@H]1C(=O)N2C(CC[C@@H]2COc2ccc3ccccc3c2)N1C(=O)[C@@H](Cc1ccccc1Cl)NC(=O)[C@H]1Cc2ccccc2CN1 (stereo partly shown) [Example 93]
34	0	47	14					NCCCC[C@H]1C(=O)N2C(CC[C@@H]2COc2ccc3ccccc3c2)N1C(=O)[C@@H](Cc1ccccc1Cl)NC(=O)[C@@H]1Cc2ccccc2N1 (stereo partly shown) [Example 95]
39	0	12	17					NCCCC[C@H]1C(=O)N2C(CC[C@@H]2COc2ccc3ccccc3c2)N1C(=O)[C@@H](Cc1ccccc1Cl)NC(=O)C1(N)CCc2ccccc21 (stereo partly shown) [Example 96]
99	30	69	28					[2H]NC(Cc1cnc[nH]1)C(=O)NC(Cc1ccccc1)C(=O)N1C(CCCNC(=N)N)C(=O)N2C(COc3ccc4ccccc4c3)CCC21 (stereo not shown) [Example 97]
11	13	16	14					NCCCC[C@H]1C(=O)N2C(CC[C@@H]2COc2ccc3ccccc3c2)N1C(=O)[C@@H](Cc1ccccc1Cl)NCc1ccccc1 (stereo partly shown) [Example 102]
9	0	0	0					NCCCCC1C(=O)N2C(COc3ccccc3)CCC2N1C(=O)C(N)Cc1ccc(Cl)cc1 (stereo not shown) [Example 103]
0	4	0	0					NCCCCC1C(=O)N2C(COc3ccccc3)CCC2N1C(=O)C(N)Cc1ccccc1Cl (stereo not shown) [Example 104]
81	19	51	25					NCCCC[C@H]1C(=O)N2C(CC[C@@H]2COc2ccccc2)N1C(=O)[C@@H](Cc1ccc(Cl)cc1)NC(=O)[C@@H]1Cc2ccccc2CN1 (stereo partly shown) [Example 106]

Reference: patent US7807678B2, “Peptidomimetics of biologically active metallopeptides” (Palatin Technologies, Inc., priority 2001, dated 2010)
